In ChEMBL document CHEMBL5678816, “A Next-Generation TRK Kinase Inhibitor Overcomes Acquired Resistance to Prior TRK Kinase Inhibition in Patients with TRK Fusion-Positive Solid Tumors” (Cancer Discov, 2017):
pIC50: −log10 of the molar value. Calls of active or inactive are those of the source. No cut-off for these calls is given here.

Legend:
[1] = biological target: Serine/threonine-protein kinase pim-1 (Homo sapiens) (UniProt P11309); assay: Inhibition of Pim-1 (unknown origin) at 1 uM in presence of ATP relative to control; values are per cent of control
Serine/threonine-protein kinase pim-1 (Homo sapiens), sequence (P11309 whole entry, looked up): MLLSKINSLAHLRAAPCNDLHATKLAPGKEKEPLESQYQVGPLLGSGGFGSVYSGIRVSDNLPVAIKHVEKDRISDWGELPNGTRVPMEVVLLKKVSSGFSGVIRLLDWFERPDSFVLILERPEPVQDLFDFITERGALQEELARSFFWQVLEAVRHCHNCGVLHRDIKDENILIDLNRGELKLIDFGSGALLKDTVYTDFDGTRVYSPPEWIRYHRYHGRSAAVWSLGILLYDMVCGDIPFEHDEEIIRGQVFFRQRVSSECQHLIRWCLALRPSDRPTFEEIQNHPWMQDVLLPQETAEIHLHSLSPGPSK

[2] = Cmin in adult patient with recurrent LMNA-NTRK1 rearranged colorectal cancer at 100 mg administered twice a day as powder-in-capsule or liquid formulation for 15 day and measured 10 hrs post dose by LC-MS/MS analysis; format: ADME; conditions: human, in vivo, po, read-out: Cmin
DMS-114 = assay: Inhibition of cell proliferation in human DMS-114 cells upto 10 umol/L incubated for 72 hrs by DAPI staining based analysis; format: functional; conditions: dose <= 10.0 µmol/L
[3] = biological target: Serine/threonine-protein kinase Sgk2 (Homo sapiens) (UniProt Q9HBY8); assay: Inhibition of SGK2 (unknown origin) at 1 uM in presence of ATP relative to control; values are per cent of control
Serine/threonine-protein kinase Sgk2 (Homo sapiens), sequence (Q9HBY8 whole entry): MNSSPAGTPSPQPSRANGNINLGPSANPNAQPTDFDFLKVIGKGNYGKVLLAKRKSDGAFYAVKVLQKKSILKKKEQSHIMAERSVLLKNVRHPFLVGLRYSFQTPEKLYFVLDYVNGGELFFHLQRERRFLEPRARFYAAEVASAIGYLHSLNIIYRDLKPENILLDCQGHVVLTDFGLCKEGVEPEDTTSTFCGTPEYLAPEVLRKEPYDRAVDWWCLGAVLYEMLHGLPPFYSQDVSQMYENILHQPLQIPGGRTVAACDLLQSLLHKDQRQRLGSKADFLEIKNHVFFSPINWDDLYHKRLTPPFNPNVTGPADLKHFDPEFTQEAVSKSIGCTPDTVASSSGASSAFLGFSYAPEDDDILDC

[4] = biological target: Calcium/calmodulin-dependent protein kinase type 1D (Homo sapiens) (UniProt Q8IU85); assay: Inhibition of CAMK1d (unknown origin) at 1 uM in presence of ATP relative to control; values are per cent of control
Calcium/calmodulin-dependent protein kinase type 1D (Homo sapiens), sequence (Q8IU85 whole entry, looked up): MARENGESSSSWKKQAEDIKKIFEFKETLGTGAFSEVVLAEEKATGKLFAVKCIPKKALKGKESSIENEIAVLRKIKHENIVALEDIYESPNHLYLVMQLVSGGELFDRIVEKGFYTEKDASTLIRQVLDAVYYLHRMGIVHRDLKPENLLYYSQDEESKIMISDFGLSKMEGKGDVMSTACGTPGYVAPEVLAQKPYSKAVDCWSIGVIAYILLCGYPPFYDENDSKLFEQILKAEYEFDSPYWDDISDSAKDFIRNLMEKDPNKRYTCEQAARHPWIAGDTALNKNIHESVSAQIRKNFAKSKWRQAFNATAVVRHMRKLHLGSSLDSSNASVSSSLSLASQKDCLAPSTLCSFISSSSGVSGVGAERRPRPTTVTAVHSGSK

[5] = biological target: Serine/threonine-protein kinase D1 (Homo sapiens) (UniProt Q15139); assay: Inhibition of PKD1 (unknown origin) at 1 uM in presence of ATP relative to control; values are per cent of control
Serine/threonine-protein kinase D1 (Homo sapiens), sequence (Q15139 whole entry): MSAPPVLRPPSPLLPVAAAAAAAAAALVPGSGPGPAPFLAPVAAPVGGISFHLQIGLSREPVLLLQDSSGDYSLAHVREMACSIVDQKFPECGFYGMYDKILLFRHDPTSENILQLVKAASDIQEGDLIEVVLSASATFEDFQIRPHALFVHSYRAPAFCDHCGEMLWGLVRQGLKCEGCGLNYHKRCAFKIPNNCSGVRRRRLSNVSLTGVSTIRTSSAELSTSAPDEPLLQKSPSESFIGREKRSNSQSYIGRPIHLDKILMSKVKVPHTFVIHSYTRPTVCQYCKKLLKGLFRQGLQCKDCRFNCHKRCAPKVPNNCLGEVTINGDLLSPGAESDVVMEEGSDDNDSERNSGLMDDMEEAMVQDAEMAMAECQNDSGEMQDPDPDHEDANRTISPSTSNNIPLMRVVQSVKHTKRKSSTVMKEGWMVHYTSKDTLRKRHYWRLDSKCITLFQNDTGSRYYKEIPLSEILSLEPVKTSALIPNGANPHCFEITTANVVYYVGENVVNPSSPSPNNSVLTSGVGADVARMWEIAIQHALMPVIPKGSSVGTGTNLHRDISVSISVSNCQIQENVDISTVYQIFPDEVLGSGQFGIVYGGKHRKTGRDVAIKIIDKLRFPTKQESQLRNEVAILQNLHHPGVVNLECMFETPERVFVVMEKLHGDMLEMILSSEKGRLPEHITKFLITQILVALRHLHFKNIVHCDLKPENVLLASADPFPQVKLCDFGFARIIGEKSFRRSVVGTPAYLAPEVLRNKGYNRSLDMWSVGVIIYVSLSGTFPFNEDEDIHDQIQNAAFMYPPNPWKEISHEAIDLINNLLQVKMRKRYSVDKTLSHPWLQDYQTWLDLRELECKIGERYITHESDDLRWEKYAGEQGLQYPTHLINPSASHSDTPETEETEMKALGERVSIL

SH-4 = assay: Inhibition of cell proliferation in human SH-4 cells upto 10 umol/L incubated for 72 hrs by DAPI staining based analysis; format: functional; conditions: dose <= 10.0 µmol/L
[6] = biological target: Activin receptor type-1B (Homo sapiens) (UniProt P36896); assay: Inhibition of ALK4 (unknown origin) at 1 uM in presence of ATP relative to control; values are per cent of control
[7] = biological target: Ephrin type-A receptor 5 (Homo sapiens) (UniProt P54756); assay: Inhibition of EphA5 (unknown origin) at 1 uM in presence of ATP relative to control; values are per cent of control
[8] = biological target: Mitogen-activated protein kinase 14 (Homo sapiens) (UniProt Q16539); assay: Inhibition of p38alpha (unknown origin) at 1 uM in presence of ATP relative to control; values are per cent of control
Mitogen-activated protein kinase 14 (Homo sapiens), sequence (Q16539 whole entry): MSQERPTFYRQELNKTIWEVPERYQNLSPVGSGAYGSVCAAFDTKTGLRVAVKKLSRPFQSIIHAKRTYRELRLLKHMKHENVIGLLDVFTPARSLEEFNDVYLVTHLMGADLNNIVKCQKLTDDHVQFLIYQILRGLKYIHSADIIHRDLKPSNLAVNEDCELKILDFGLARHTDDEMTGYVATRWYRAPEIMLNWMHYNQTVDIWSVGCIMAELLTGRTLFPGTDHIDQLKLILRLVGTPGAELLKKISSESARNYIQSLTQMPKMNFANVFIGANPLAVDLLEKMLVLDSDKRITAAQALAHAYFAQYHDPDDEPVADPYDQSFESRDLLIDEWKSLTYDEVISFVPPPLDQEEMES

[9] = biological target: Mitogen-activated protein kinase kinase kinase kinase 2 (Homo sapiens) (UniProt Q12851); assay: Inhibition of MAP4K2 (unknown origin) at 1 uM in presence of ATP relative to control; values are per cent of control
[10] = biological target: Serine/threonine-protein kinase WNK2 (Homo sapiens) (UniProt Q9Y3S1); assay: Inhibition of WNK2 (unknown origin) at 1 uM in presence of ATP relative to control; values are per cent of control
Detroit 562 = assay: Inhibition of cell proliferation in human Detroit 562 cells upto 10 umol/L incubated for 72 hrs by DAPI staining based analysis; format: functional; conditions: dose <= 10.0 µmol/L
CHL-1 = assay: Inhibition of cell proliferation in human CHL-1 cells upto 10 umol/L incubated for 72 hrs by DAPI staining based analysis; format: functional; conditions: dose <= 10.0 µmol/L
[11] = biological target: Vascular endothelial growth factor receptor 1 (Homo sapiens) (UniProt P17948); assay: Inhibition of FLt1 (unknown origin) at 1 uM in presence of ATP relative to control; values are per cent of control
[12] = biological target: Tyrosine-protein kinase ITK/TSK (Homo sapiens) (UniProt Q08881); assay: Inhibition of ITK (unknown origin) at 1 uM in presence of ATP relative to control; values are per cent of control
Tyrosine-protein kinase ITK/TSK (Homo sapiens), sequence (Q08881 whole entry, the tested form may be a part): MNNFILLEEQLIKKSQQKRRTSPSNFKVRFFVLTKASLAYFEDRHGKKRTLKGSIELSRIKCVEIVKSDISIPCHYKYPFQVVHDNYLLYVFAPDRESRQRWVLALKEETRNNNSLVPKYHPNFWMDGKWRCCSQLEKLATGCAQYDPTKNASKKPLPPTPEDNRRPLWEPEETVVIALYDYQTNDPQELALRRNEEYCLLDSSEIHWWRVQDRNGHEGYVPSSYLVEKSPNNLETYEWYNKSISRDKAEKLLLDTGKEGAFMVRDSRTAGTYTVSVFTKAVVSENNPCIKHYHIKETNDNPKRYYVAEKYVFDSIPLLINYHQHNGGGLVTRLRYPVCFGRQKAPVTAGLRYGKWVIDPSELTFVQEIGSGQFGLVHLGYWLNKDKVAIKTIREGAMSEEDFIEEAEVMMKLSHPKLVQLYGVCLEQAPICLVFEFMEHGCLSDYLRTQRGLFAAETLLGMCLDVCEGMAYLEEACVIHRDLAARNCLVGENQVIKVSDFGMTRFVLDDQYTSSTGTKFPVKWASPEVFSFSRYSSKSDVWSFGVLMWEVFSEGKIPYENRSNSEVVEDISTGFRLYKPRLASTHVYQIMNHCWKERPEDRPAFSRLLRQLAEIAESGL

[13] = Inhibition of human extracellular domain deleted TRKA G667S mutant expressed in mouse NIH3T3 cells assessed as reduction in TRKA phosphorylation incubated for 1 hrs by ELISA; format: cell-based; conditions: NIH3T3, 1 h
[14] = biological target: Ephrin type-B receptor 1 (Homo sapiens) (UniProt P54762); assay: Inhibition of EphB1 (unknown origin) at 1 uM in presence of ATP relative to control; values are per cent of control
Ephrin type-B receptor 1 (Homo sapiens), sequence (P54762 whole entry): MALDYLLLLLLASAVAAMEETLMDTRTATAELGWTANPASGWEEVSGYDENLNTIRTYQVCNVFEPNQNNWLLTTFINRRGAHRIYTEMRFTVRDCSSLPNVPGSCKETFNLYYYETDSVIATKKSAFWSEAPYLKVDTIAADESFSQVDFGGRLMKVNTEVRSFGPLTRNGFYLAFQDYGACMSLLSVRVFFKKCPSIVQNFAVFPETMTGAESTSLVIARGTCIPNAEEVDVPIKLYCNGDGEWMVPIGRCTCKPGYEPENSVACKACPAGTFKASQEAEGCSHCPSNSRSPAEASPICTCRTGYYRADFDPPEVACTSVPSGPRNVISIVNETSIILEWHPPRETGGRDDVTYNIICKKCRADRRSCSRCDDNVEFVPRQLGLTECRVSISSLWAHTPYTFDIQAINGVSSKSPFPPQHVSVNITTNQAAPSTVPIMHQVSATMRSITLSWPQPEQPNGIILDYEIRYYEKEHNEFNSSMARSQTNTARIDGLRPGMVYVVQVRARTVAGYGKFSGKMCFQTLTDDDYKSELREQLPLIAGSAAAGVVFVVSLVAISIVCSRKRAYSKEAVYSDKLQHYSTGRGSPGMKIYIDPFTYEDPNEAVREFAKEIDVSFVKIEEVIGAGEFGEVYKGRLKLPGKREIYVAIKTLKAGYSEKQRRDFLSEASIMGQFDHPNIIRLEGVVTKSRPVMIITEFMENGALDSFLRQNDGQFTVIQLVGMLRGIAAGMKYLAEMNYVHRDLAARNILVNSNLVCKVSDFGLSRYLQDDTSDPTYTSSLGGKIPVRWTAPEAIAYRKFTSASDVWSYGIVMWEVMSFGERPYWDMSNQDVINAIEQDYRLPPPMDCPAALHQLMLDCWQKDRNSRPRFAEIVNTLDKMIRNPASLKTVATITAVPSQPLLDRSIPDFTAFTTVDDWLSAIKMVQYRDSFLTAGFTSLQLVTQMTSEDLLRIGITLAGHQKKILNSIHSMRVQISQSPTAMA

[15] = biological target: Tyrosine-protein kinase Mer (Homo sapiens) (UniProt Q12866); assay: Inhibition of Mer (unknown origin) at 1 uM in presence of ATP relative to control; values are per cent of control
AN3-CA = assay: Inhibition of cell proliferation in human AN3-CA cells upto 10 umol/L incubated for 72 hrs by DAPI staining based analysis; format: functional; conditions: dose <= 10.0 µmol/L
SCC-4 = assay: Inhibition of cell proliferation in human SCC-4 cells upto 10 umol/L incubated for 72 hrs by DAPI staining based analysis; format: functional; conditions: dose <= 10.0 µmol/L
[16] = biological target: Calcium/calmodulin-dependent protein kinase type II subunit gamma (Homo sapiens) (UniProt Q13555); assay: Inhibition of CAMK2g (unknown origin) at 1 uM in presence of ATP relative to control; values are per cent of control
Calcium/calmodulin-dependent protein kinase type II subunit gamma (Homo sapiens), sequence (Q13555 whole entry): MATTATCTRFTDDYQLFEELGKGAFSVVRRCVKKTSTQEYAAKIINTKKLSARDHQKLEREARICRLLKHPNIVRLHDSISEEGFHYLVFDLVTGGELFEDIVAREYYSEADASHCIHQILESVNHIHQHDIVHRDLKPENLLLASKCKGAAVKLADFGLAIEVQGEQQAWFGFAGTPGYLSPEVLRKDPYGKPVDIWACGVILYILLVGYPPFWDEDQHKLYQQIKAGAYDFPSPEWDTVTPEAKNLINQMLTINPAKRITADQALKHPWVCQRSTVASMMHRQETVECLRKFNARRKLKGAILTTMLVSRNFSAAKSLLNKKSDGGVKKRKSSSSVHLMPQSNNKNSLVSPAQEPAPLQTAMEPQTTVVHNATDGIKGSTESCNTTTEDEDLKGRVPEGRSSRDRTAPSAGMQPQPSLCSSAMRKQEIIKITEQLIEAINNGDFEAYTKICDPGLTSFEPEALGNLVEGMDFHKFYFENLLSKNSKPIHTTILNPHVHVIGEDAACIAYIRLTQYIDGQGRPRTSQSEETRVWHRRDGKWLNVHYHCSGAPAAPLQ

[17] = biological target: Inhibitor of nuclear factor kappa-B kinase subunit beta (Homo sapiens) (UniProt O14920); assay: Inhibition of IKKbeta (unknown origin) at 1 uM in presence of ATP relative to control; values are per cent of control
Homo sapiens [18] = organism: Homo sapiens; assay: Inhibition of PKCgamma (unknown origin) at 1 uM in presence of ATP relative to control; values are per cent of control
[19] = biological target: Serine/threonine-protein kinase 3 (Homo sapiens) (UniProt Q13188); assay: Inhibition of MST2 (unknown origin) at 1 uM in presence of ATP relative to control; values are per cent of control
Serine/threonine-protein kinase 3 (Homo sapiens), sequence (Q13188 whole entry): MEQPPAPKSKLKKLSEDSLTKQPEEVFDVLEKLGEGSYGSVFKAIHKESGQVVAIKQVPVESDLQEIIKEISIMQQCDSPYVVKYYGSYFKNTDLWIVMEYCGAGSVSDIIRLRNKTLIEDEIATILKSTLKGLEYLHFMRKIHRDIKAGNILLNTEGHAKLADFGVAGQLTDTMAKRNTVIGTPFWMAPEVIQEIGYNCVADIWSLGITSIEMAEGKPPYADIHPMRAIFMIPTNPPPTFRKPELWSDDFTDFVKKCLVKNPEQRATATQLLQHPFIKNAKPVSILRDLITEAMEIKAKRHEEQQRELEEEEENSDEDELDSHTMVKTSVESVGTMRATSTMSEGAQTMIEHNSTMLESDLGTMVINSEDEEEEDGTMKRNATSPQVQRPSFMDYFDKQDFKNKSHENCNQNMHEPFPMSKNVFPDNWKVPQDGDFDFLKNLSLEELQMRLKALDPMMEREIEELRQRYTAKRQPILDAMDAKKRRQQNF

[20] = biological target: Vascular endothelial growth factor receptor 3 (Homo sapiens) (UniProt P35916); assay: Inhibition of FLt4 (unknown origin) at 1 uM in presence of ATP relative to control; values are per cent of control
T47D = assay: Inhibition of cell proliferation in human T47D cells upto 10 umol/L incubated for 72 hrs by DAPI staining based analysis; format: functional; conditions: dose <= 10.0 µmol/L
[21] = Cmax in pediatric patient with recurrent ETV6-NTRK3-rearranged infantile fibrosarcoma at 20 mg administered twice a day as liquid formulation for 1 day by LC-MS/MS analysis; format: ADME; conditions: human, in vivo
Homo sapiens [22] = organism: Homo sapiens; assay: Inhibition of MKK4_m (unknown origin) at 1 uM in presence of ATP relative to control; values are per cent of control
DU-145 = assay: Inhibition of cell proliferation in human DU-145 cells upto 10 umol/L incubated for 72 hrs by DAPI staining based analysis; format: functional; conditions: dose <= 10.0 µmol/L

With `C[C@@H]1CCc2ncc(F)cc2[C@H]2CCCN2c2ccn3ncc(c3n2)C(=O)N1` [SELITRECTINIB] the residual activity [1] was 122%, the concentration at 370 h [2] was 7.78 ng/mL and the inhibition (DMS-114) was “inactive”. It also gave a residual activity [3] of 136%, a residual activity [4] of 116% and a residual activity [5] of 106%. For the same compound, the inhibition (SH-4) was “inactive”, the residual activity [6] was 96% and the residual activity [7] was 90%. The residual activity [8] was 109%, the residual activity [9] was 102% and the residual activity [10] was 128%. For the same compound, the inhibition (Detroit 562) was “inactive”, the inhibition (CHL-1) was “inactive” and the residual activity [11] was 101%. It also gave a residual activity [12] of 90.5%, a pIC50 [13] of 7.60 and a residual activity [14] of 112%. The residual activity [15] was 117%, the inhibition (AN3-CA) was “inactive” and the inhibition (SCC-4) was “inactive”. For the same compound, the residual activity [16] was 95%, the residual activity [17] was 119% and the residual activity (Homo sapiens [18]) was 97.5%. The residual activity [19] was 112%, the residual activity [20] was 90% and the inhibition (T47D) was “inactive”. The Cmax [21] was 143 ng/mL, the residual activity (Homo sapiens [22]) was 108% and the inhibition (DU-145) was “inactive”.
